Assays:
[1] = xn = mol fraction of the nth substance listed; settings: 298.15 K, 100 kPa, Liquid; for speed of sound: Frequency=3 MHz, Single path-length method; for mass density: Vibrating tube method
[2] = excess molar enthalpy (molar enthalpy of mixing); xn = mol fraction of the nth substance listed; settings: 298.15 K, 100 kPa, Liquid, Power-compensation calorimetry
[3] = 298.15 K, 100 kPa, Liquid; for speed of sound: Frequency=3 MHz, Single path-length method; for mass density: Vibrating tube method

CCO [ethanol] + COC(=O)C(C)O
[1], x2 = 0
Settings	mass density [kg/m3]	speed of sound [m/s]
–	785.16	1143.2

COC(=O)C(C)O (stereo not given) [methyl 2-hydroxypropanoate] + CO
Settings	excess molar enthalpy, [2] [kcal/mol]	mass density, [1] [kg/m3]	speed of sound, [1] [m/s]
x1 = 0.0565	–	826.67	1134.5
x1 = 0.0945	–	850.35	1152.9
x1 = 0.104	0.0038	–	–
x1 = 0.151	0.00392	–	–
x1 = 0.1933	–	902.12	1196.4
x1 = 0.262	0.00117	–	–
x1 = 0.287	0.000215	–	–
x1 = 0.3029	–	947.03	1234.1
x1 = 0.316	-0.000956	–	–
x1 = 0.3844	–	974.04	1254.7
x1 = 0.399	-0.00413	–	–
x1 = 0.482	-0.00719	–	–
x1 = 0.5099	–	1008.1	1282.4
x1 = 0.595	-0.00903	–	–
x1 = 0.6105	–	1029.88	1301.4
x1 = 0.687	-0.00937	–	–
x1 = 0.7215	–	1049.84	1318.2
x1 = 0.798	-0.00686	–	–
x1 = 0.8206	–	1064.82	1329.8
x1 = 0.879	-0.0044	–	–
x1 = 0.9225	–	1078.13	1337.1
x1 = 0.945	-0.00194	–	–
x1 = 0.9601	–	1082.7	1338.8
x1 = 1	–	1087.35	1339.3

CCO [ethanol] + CCOC(=O)C(C)O
[1], x2 = 0
Settings	mass density [kg/m3]	speed of sound [m/s]
–	785.16	1143.2

CCOC(=O)C(C)O (stereo not drawn) [DL-ethyl lactate] + CCO
Settings	excess molar enthalpy, [2] [kcal/mol]	mass density, [1] [kg/m3]	speed of sound, [1] [m/s]
x1 = 0.0522	–	809.88	1158.1
x1 = 0.054	0.0177	–	–
x1 = 0.0957	–	828.74	1169.7
x1 = 0.114	0.0337	–	–
x1 = 0.1946	–	866.53	1192.8
x1 = 0.225	0.0502	–	–
x1 = 0.2902	–	897.43	1211.3
x1 = 0.312	0.0554	–	–
x1 = 0.4011	–	927.58	1229.3
x1 = 0.42	0.0574	–	–
x1 = 0.4995	–	950.3	1240.8
x1 = 0.511	0.0538	–	–
x1 = 0.6076	–	971.75	1252.8
x1 = 0.635	0.0457	–	–
x1 = 0.6931	–	986.54	1261.4
x1 = 0.737	0.0349	–	–
x1 = 0.7965	–	1002.43	1268.7
x1 = 0.829	0.0217	–	–
x1 = 0.9047	–	1017.03	1275.2
x1 = 0.93	0.0097	–	–
x1 = 0.9511	–	1022.75	1277.3
x1 = 0.96	0.00478	–	–
x1 = 1	–	1028.45	1279.3

CO [methanol]
[3]
Settings	mass density [kg/m3]	speed of sound [m/s]
–	786.53	1104

CCCCO [butan-1-ol] + CCOC(=O)C(C)O
[1], x2 = 0
Settings	mass density [kg/m3]	speed of sound [m/s]
–	805.95	1240.4

CO [methanol] + CCOC(=O)C(C)O
[1], x2 = 0
Settings	mass density [kg/m3]	speed of sound [m/s]
–	786.53	1104

CCOC(=O)C(C)O (racemic) [DL-ethyl lactate]
[3]
Settings	mass density [kg/m3]	speed of sound [m/s]
–	1028.45	1279.3

COC(=O)C(C)O (stereo not given) [methyl 2-hydroxypropanoate]
[3]
Settings	mass density [kg/m3]	speed of sound [m/s]
–	1087.35	1339.3

CCOC(=O)C(C)O (stereo not drawn) [DL-ethyl lactate] + CCCCO
Settings	excess molar enthalpy, [2] [kcal/mol]	mass density, [1] [kg/m3]	speed of sound, [1] [m/s]
x1 = 0.048	0.0471	–	–
x1 = 0.0502	–	819.65	1241.3
x1 = 0.0914	–	830.65	1242.1
x1 = 0.103	0.0841	–	–
x1 = 0.1929	–	856.89	1244.7
x1 = 0.233	0.136	–	–
x1 = 0.3041	–	884.31	1248.3
x1 = 0.314	0.149	–	–
x1 = 0.4061	–	908.31	1252.3
x1 = 0.414	0.154	–	–
x1 = 0.4991	–	929.27	1256
x1 = 0.527	0.146	–	–
x1 = 0.6037	–	951.84	1260.8
x1 = 0.626	0.127	–	–
x1 = 0.707	–	973.11	1265.9
x1 = 0.714	0.0992	–	–
x1 = 0.7968	–	990.82	1270.1
x1 = 0.82	0.0588	–	–
x1 = 0.8927	–	1008.98	1274.6
x1 = 0.91	0.0299	–	–
x1 = 0.951	0.0129	–	–
x1 = 0.9527	–	1019.97	1277.3
x1 = 1	–	1028.45	1279.3

CCOC(=O)C(C)O (stereo not drawn) [DL-ethyl lactate] + CCCO
Settings	excess molar enthalpy, [2] [kcal/mol]	mass density, [1] [kg/m3]	speed of sound, [1] [m/s]
x1 = 0.025	0.0229	–	–
x1 = 0.0489	–	816.57	1211.1
x1 = 0.054	0.0473	–	–
x1 = 0.1025	–	834.15	1216.4
x1 = 0.117	0.0815	–	–
x1 = 0.2027	–	864.58	1225.8
x1 = 0.216	0.109	–	–
x1 = 0.3036	–	892.35	1235.2
x1 = 0.309	0.12	–	–
x1 = 0.3973	–	915.89	1242.5
x1 = 0.404	0.121	–	–
x1 = 0.4963	–	938.64	1250.2
x1 = 0.517	0.115	–	–
x1 = 0.6012	–	960.68	1257.8
x1 = 0.612	0.101	–	–
x1 = 0.6951	–	978.76	1263.9
x1 = 0.712	0.0765	–	–
x1 = 0.8061	–	998.37	1270.4
x1 = 0.814	0.0459	–	–
x1 = 0.905	0.021	–	–
x1 = 0.9076	–	1014.74	1275.6
x1 = 0.9482	–	1020.9	1277.3
x1 = 1	–	1028.45	1279.3

From the NIST ThermoML archive (doi:10.1016/j.jct.2018.07.013)
